Read-outs that look alike come from different tables or passages of the source. Marks after values point to notes of the source that are not given here.
Key:
[1] = Secondary prevention or treatment of osteoporosis in ovariectomized mice; format: in vivo, C3H female mice
Procedure: 12 week old C3H female mice are subjected to bilateral ovariectomy or sham surgery. The animals are treated with the analog or vehicle by oral gavage or intraperitoneally. Dosing is started 4 weeks after sugery and continued for 4-10 weeks.
(§1) Before the first treatment in vivo measurements are performed to determine bone mineral density (BMD), bone mineral content (BMC) of total body and spine by dual-energy, X-ray absorptiometry (DXA). Urine and serum is collected to measure calcium levels together with collagen cross-links in urine and osteocalcin in serum. The animals are weighed regularly during the experimental period. After 4 weeks treatment urine and serum is again collected and biochemical parameters are determined and urine is collected and DXA measurement is performed in vivo to determine BMD and BMC. After killing the animals tibiae and femora are dissected The following biochemical parameters are investigated: serum calcium, serum osteocalcin, urine calcium, urine collagen cross-links, femur calcium.
(§2) Tibiae are used for histomorphometric analysis and femurs for measurement of cortical and trabecular volumetric density and geometry by peripheral quantitative computed tomography (pQCT) ex vivo.

[2] = molecular target: T1, vitamin D receptor (Sus scrofa, UniProt A3RGC1); conditions: percentage activity (at 50% of the dose response) in comparison with 1α,25(OH)2D3 (=100%)
T1 sequence (A3RGC1 1-427): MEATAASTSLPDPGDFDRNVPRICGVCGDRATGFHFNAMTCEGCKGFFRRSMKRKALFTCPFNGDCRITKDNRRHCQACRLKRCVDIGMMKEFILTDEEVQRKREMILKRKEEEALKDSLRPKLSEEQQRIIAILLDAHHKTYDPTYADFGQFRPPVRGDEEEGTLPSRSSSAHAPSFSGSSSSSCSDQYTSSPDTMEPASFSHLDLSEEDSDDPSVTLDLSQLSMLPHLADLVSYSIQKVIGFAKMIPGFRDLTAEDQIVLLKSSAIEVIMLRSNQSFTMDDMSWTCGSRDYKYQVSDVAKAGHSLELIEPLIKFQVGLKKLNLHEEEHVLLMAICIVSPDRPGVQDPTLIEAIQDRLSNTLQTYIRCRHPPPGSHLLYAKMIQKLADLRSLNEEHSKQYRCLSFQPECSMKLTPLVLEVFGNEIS
Procedure: The incubation was performed at 4° C. for 20 h and phase separation was obtained by addition of dextran-coated charcoal.

[3] = Primary prevention of osteoporosis in ovariectomized mice; format: in vivo, C3H female mice
Procedure: 12 week old C3H female mice are subjected to bilateral ovariectomy or sham surgery. The animals are treated with the analog or vehicle by oral gavage or intraperitoneally. Dosing is started 3 days after sugery and continued for 8-9 weeks.
as §1, with “dual-energy” for “dual-energy,”, “determined. At the end of the experiment (8-9 weeks)” for “determined and”
as §2

[4] = for Femur calcium: NMRI mice; for IN VIVO STUDIES Osteocalcin serum: mice, daily intraperitoneal injection 7 consecutive days, percentage activity vs 1α,25(OH)2D3 (=100%); for IN VIVO STUDIES Calcium serum / IN VIVO STUDIES Calcium urine / Serum calcium in mice: mouse, ip, in vivo
Procedure: Eight weeks old, male NMRI mice were obtained from the Proefdierencentrum of Leuven (Belgium) and fed a vitamin D-replete diet (0.2% calcium, 1% phosphate, 2000 U vitamin D/kg; Hope Farms, Woerden, The Netherlands). […] The control group was injected with vehicle (arachis oil). The average weight of each group of 6 mice was determined at the beginning and at the end of the experiment. The following parameters were evaluated: serum calcium, serum osteocalcin, femur calcium and urinary calcium. Serum and urinary calcium were measured by a microcolorimetric assay (Sigma, St. Louis, Mo.). Femurs were removed and femur calcium content was measured in HCl-dissolved bone ash (obtained by heating for 24 h in an oven at 100° C.), using the same technique as for serum and urinary calcium.

[5] = tested on: HL-60 cells; assay: HL-60 cell differentiation (NBT reduction assay); format: cell-based; conditions: for IN VITRO STUDIES HL 60: potency to differentiate HL 60 cells, percentage activity vs 1α,25(OH)2D3 (=100%)
Procedure: To evaluate the effect on cell differentiation HL-60 cells were seeded at 4×10^4 cells/ml in 25 cm^2 Falcon tissue chambers using RPMI 1640 medium supplemented with 20% FCS and gentamycin (50 μg/ml) in a final volume of 5 ml. Cultures were maintained at 37° C. in a humidified atmosphere of 5% CO2 in air. […] After 4 days of culture, the dishes were shaken to lose adherent cells. Cells were washed twice in RPMI, counted and assayed for differentiation markers (NBT reduction assay). Superoxide production was measured as NBT reducing activity as described previously (Ostrem V. K et al. Proc Natl Acad Sci USA 84: 2610-2614, 1987). HL-60 cells at 1×10^6/ml were mixed with an equal volume of freshly prepared solution of phorbol 12-myristate 13-acetate (200 ng/ml) and […] and incubated for 30 min at 37° C. The percentage of cells containing black formazan deposits was determined using a hemacytometer.

[6] = molecular target: T2, hDBP (Homo sapiens, UniProt P02774); assay: Affinity for human DBP: competition with [3H]1α,25(OH)2D3; format: binding; conditions: percentage activity (at 50% of the dose response) in comparison with 1α,25(OH)2D3 (=100%)
T2 sequence (P02774 17-474): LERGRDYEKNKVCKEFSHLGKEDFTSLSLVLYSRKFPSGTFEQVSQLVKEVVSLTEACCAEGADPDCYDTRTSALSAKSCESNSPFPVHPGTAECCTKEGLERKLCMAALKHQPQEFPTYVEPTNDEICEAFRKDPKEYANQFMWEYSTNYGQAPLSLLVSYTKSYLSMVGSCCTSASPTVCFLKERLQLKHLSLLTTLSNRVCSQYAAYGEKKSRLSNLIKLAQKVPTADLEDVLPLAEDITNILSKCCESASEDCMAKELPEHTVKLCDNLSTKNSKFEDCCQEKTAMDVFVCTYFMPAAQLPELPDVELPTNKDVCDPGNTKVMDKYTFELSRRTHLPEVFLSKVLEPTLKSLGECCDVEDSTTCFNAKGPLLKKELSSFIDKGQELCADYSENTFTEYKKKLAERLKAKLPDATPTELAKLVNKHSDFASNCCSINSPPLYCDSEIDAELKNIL
Procedure: Phase separation was then obtained by the addition of 0.5 ml of cold dextran-coated charcoal.

[7] = tested on: MCF-7 cells; assay: MCF-7 cell proliferation ([3H]thymidine incorporation); format: cell-based; conditions: for IN VITRO STUDIES MCF-7: antiproliferative action, percentage activity vs 1α,25(OH)2D3 (=100%); for Antiproliferative activity on MCF-7 cells: percentage activity (at 50% of the dose response) vs 1α,25(OH)2D3 (=100%)
Procedure: To evaluate the effect of on cell proliferation, malignant MCF-7 cells were cultured in DMEM/nut. mix. […] Cultures were maintained at 37° C. in a humidified atmosphere of 5% CO2 in air. MCF-7 cells were seeded at 5×10^3 cells/well in the above described medium in 96-well microtiter plates in a final volume of 0.2 ml per well. Triplicate cultures were performed. […] Then, 1 μCi [^3H]thymidine was added to each well and cells were harvested after 4 h incubation with a Packard harvester and measured by the Packard Topcount System (Packard, Meriden, USA).

[8] = background, well established; cited from earlier work
[9] = tested on: MCF-7 cells; conditions: known superagonists; data published in J Bone Mineral Res 15 (2): 237-252 (2000); cited from earlier work
[10] = known superagonists; data published in J Bone Mineral Res 15 (2): 237-252 (2000); cited from earlier work

| AFFINITY STUDIES VDR [2] [%] | IN VIVO STUDIES Calcium serum [4] | IN VIVO STUDIES Calcium urine [4] [%] | Serum calcium in mice [4] | AFFINITY STUDIES DBP [6] [%] | Compound | IN VIVO STUDIES Osteocalcin serum [4] [%] | prodifferentiating effect (in words) ([5]; HL 60 cells) | IN VITRO STUDIES HL 60 [5] [%] | antiproliferative effect (in words) ([7]; MCF-7 cells) | IN VITRO STUDIES MCF-7 [7] [%] | Antiproliferative activity on MCF-7 cells [7] [%] | further results |
| --- | --- | --- | --- | --- | --- | --- | --- | --- | --- | --- | --- | --- |
| 80 | 2% | 4 | 2% | 0.3 | 14-epi-2α-methyl-19-nor-23-yn-1α,25-dihydroxyvitamin D3 [Compound 108] | 4 | very potent | 4000 | very potent | 12000 | 12000 | serum calcium or urinary calcium levels ([1]; after four weeks, more particularly 8 weeks of treatment): not significantly increased; BMD, BMC and femur calcium concentration ([1]; ovariectomized mice, dosing from 4 weeks after surgery, compared to levels prior to treatment): increase; serum calcium or urinary calcium levels ([3]; after at least four weeks, more particularly 8 weeks of treatment): not significantly increased; BMD, BMC and femur calcium ([3]; ovariectomized mice, dosing from 3 days after surgery for 8-9 weeks): increase; increase of calcium levels in bone compared to 0.1 μg/kg/d 1,25(OH)2D3 ([4]; 1 μg/kg/d, 7 consecutive days): 18%; increase of calcium levels in bone compared to 0.2 μg/kg/d 1,25(OH)2D3 ([4]; 1 μg/kg/d, 7 consecutive days): 14%; increase of calcium levels in bone compared to 0.4 μg/kg/d 1,25(OH)2D3 ([4]; 1 μg/kg/d, 7 consecutive days): 20%; increase of calcium levels in bone compared to vehicle treated mice ([4]; 1 μg/kg/d, 7 consecutive days): 10%; Femur calcium ([4]; 0.4 μg/kg/d intraperitoneally, 7 consecutive days): 9.57 ± 0.26 mg; Femur calcium ([4]; 1 μg/kg/d intraperitoneally, 7 consecutive days): 10.52 ± 0.43*^,$ mg; prodifferentiating activity, times that of 1α,25(OH)2D3 ([5]; HL 60 cells): 40 times; antiproliferative activity, times that of 1α,25(OH)2D3 ([7]; MCF-7 cells): 120 times |
| – | – | – | – | – | C[C@H](CCCC(C)(C)O)[C@H]1CC[C@H]2/C(=C/C=C3C[C@@H](O)C[C@H](O)C3)CCC[C@]12C [19-nor-1α,25-dihydroxyvitamin D3] | – | – | – | – | – | – | calcemic effect, % of that of 1α,25(OH)2D3 [8]: 10% |
| 9 | 0.4% | 0.8 | 0.4% | 0.5 | CCC1C(O)CC(=CC=C2CCCC3(C)C2CCC3C(C)CC#CC(C)(C)O)CC1O (stereo not drawn) [Compound 111, 2β-ethyl-19-nor-23-yne-1α,25(OH)2D3] | 0.8 | – | 80 | – | 700 | 700 | – |
| 55 | 1.6% | 0.8 | – | 0.9 | CCC1C(O)CC(=CC=C2CCCC3(C)C2CCC3C(C)CC#CC(C)(C)O)CC1O (stereo not drawn) [Compound 112, 2α-ethyl-19-nor-23-yne-1α,25(OH)2D3] | 3 | very potent | 300 | very potent | 2000 | – | enhancement of antiproliferative effects on MCF-7 cells on introduction of the 23-yne side chain ([7]; compared with 2α-ethyl-19-nor-1α,25(OH)2D3 (110)): 3 fold |
| 8 | 0.4% | 0.4 | – | 3 | CCC1C(O)CC(=CC=C2CCCC3(C)C2CCC3C(C)CCCC(C)(C)O)CC1O (stereo not drawn) [Compound 113] | 0.4 | – | 10 | – | 75 | – | – |
| 30 | 1% | 1 | – | 40 | CCC1C(O)CC(=CC=C2CCCC3(C)C2CCC3C(C)CCCC(C)(C)O)CC1O (stereo not drawn) [Compound 114, 2α-ethyl-14-epi-19-nor-1α,25(OH)2D3] | 1 | – | 80 | – | 150 | – | – |
| 9 | <<0.1% | <0.1 | <<0.1% | 0.2 | CCC1C(O)CC(=CC=C2CCCC3(C)C2CCC3C(C)CC#CC(C)(C)O)CC1O (stereo not drawn) [Compound 115, 2β-ethyl-14-epi-19-nor-23-yne-1α,25(OH)2D3] | 0.1 | – | 80 | – | 600 | 600 | – |
| 65 | 0.2% | – | 0.2% | 0.1 | CCC1C(O)CC(=CC=C2CCCC3(C)C2CCC3C(C)CC#CC(C)(C)O)CC1O (stereo not drawn) [Compound 116, 2α-ethyl-14-epi-19-nor-23-yne-1α,25(OH)2D3] | 0.2 | very potent | 550 | very potent | 3000 | 3000 | – |
| 40 | <0.25% | <0.25 | – | 0 | CC(CC#CC(C)(C)O)C1CCC2C(=CC=C3CC(O)C(C)C(O)C3)CCCC21C (stereo not drawn) [Compound 117, 3,14-bis-epi-2α-methyl-19-nor-23-yn-1α,25-dihydroxyvitamin-D3] | – | very potent | 400 | very potent | – | – | – |
| – | – | – | – | – | C=C1/C(=C\C=C2/CCC[C@]3(C)[C@@H]([C@H](C)/C=C/[C@@H](O)C4CC4)CC[C@@H]23)C[C@@H](O)C[C@@H]1O [MC 903] | – | – | – | – | – | – | Antiproliferative activity on MCF-7 cells [9]: 100-200%; Serum calcium in mice [10]: 1% |
| – | – | – | – | – | C=C1/C(=C\C=C2/CCC[C@]3(C)[C@@H]([C@H](C)OCCC(C)(C)O)CC[C@@H]23)C[C@@H](O)C[C@@H]1O [OCT] | – | – | – | – | – | – | Antiproliferative activity on MCF-7 cells [9]: 100-150%; Serum calcium in mice [10]: 0.3% |

— patent US20060189576A1, “Substituted vitamin d analogues and their therapeutic uses” (priority 2003, published 2006)
